Experimental data taken from patent US9617289B2, “RSV antiviral compounds” (JANSSEN R&D IRELAND, priority 2012, dated 2017).
Where two headings read alike, the source gives them in different places.

Test system: rgRSV224 virus
Experiment: Antiviral activity: inhibition of rgRSV224 (GFP-expressing RSV) replication in HeLa cells
Format: cell-based, respiratory syncytial virus
Conditions: human respiratory syncytial virus, HeLa, 72 h
Outline: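 HeLa cells infected with GFP-expressing rgRSV224 at MOI 0.02 alongside 4-fold compound dilutions in duplicate (0.5% DMSO). Incubated 3 days at 37 °C; EC50 taken as 50% inhibition of GFP expression by laser microscopy. CC50 measured in parallel uninfected cells by ATP content after 3 days; SI = CC50/EC50.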

[1] = read-out: RSV-wt_pEC50, rgRSV224 (MOI=0.02) in HeLa cells, GFP expression three days post-virus exposure

In the case of `CC(=O)NS(=O)(=O)N1CCC2(CC1)C(=O)N(Cc1nc3cc(Cl)ccc3n1CCCC#N)c1cnccc12` [Compound 95, N-[(1′-{[5-Chloro-1-(3-cyanopropyl)-1H-benzimidazol-2-yl]methyl}-2′-oxo-1′,2′-dihydro-1H-spiro[piperidine-4,3′-pyrrolo[2,3-c]pyridin]-1-yl)sulfonyl]acetamide], the EC50 [1] is reported as 0.0794 nM.

`N#CCCCn1c(CN2C(=O)C3(CCN(S(=O)(=O)c4cccs4)CC3)c3ccncc32)cc2cc(Cl)ccc21` [Compound 96, 4-(5-Chloro-2-{[2′-oxo-1-(thiophen-2-ylsulfonyl)spiro-[piperidine-4,3′-pyrrolo[2,3-c]pyridin]-1′(2′H)-yl]methyl}-1H-indol-1-yl)butanenitrile] showed an EC50 [1] of 0.427 nM.

With `CC(C)CCn1c(CN2C(=O)C3(CCN(C(=O)OC(C)(C)C)CC3)c3ccncc32)cc2cnccc21` [Compound 97, tert-Butyl 1′-{[1-(3-methylbutyl)-1H-pyrrolo[3,2-c]pyridin-2-yl]methyl}-2′-oxo-1,2′-dihydro-1H-spiro[piperidine-4,3′-pyrrolo[2,3-c]pyridine]-1-carboxylate] the EC50 [1] was 1.45 nM.

For `COC(=O)N1CCC2(CC1)C(=O)N(Cc1nc3cc(Cl)ccc3n1CCCC#N)c1cnccc12` [Compound 98, Methyl 1′-{[5-chloro-1-(3-cyanopropyl)-1H-benzimidazol-2-yl]methyl}-2′-oxo-1′,2′-dihydro-1H-spiro[piperidine-4,3′-pyrrolo[2,3-c]pyridine]-1-carboxylate], the EC50 [1] was 0.0676 nM.

Work on `CC(C)OC(=O)N1CCC2(CC1)C(=O)N(Cc1nc3cc(Cl)ccc3n1CCCC#N)c1cnccc12` [Compound 99, 1-Methylethyl 1′-{[5-chloro-1-(3-cyanopropyl)-1H-benzimidazol-2-yl]methyl}-2′-oxo-1′,2′-dihydro-1H-spiro[piperidine-4,3′-pyrrolo[2,3-c]pyridine]-1-carboxylate] yielded an EC50 [1] of 0.024 nM.

`NC(=O)CCCn1c(CN2C(=O)C3(CNC3)c3ccccc32)nc2cc(Cl)ccc21` [Compound 100, 4-{5-Chloro-2-[(2′-oxospiro[azetidine-3,3′-indol]-1′(2′H)-yl)methyl]-1H-benzimidazol-1-yl}butanamide] gave an EC50 [1] of 263 nM.

Compound `N#CCCCn1c(CN2C(=O)C3(CNC3)c3ccccc32)nc2cc(Cl)ccc21` [Compound 101, 4-{5-Chloro-2-[(2′-oxospiro[azetidine-3,3′-indol]-1′(2′H)-yl)methyl]-1H-benzimidazol-1-yl}butanenitrile] has an EC50 [1] of 0.891 nM.

Work on `N#CCCCn1c(CN2C(=O)C3(CCN(C(=O)OC4CCC4)CC3)c3ccncc32)cc2cc(Cl)ccc21` [Compound 103, Cyclobutyl 1′-{[5-chloro-1-(3-cyanopropyl)-1H-indol-2-yl]-methyl}-2′-oxo-1′,2′-dihydro-1H-spiro[piperidine-4,3′-pyrrolo[2,3-c]pyridine]-1-carboxylate] yielded an EC50 [1] of 0.263 nM.

`CC(C)(O)C(=O)N1CCC2(CC1)C(=O)N(Cc1cc3cc(Cl)ccc3n1CCCCF)c1cnccc12` [Compound 106, 1′-{[5-Chloro-1-(4-fluorobutyl)-1H-indol-2-yl]methyl}-1-(2-hydroxy-2-methylpropanoyl)spiro[piperidine-4,3′-pyrrolo-[2,3-c]pyridin]-2′(1′H)-one] showed an EC50 [1] of 0.24 nM.

`CC(C)(O)C(=O)N1CCC2(CC1)C(=O)N(Cc1nc3cc(Cl)ccc3n1CCCC#N)c1cnccc12` [Compound 107, 4-(5-Chloro-2-{[1-(2-hydroxy-2-methylpropanoyl)-2′-oxo-spiro[piperidine-4,3′-pyrrolo[2,3-c]pyridin]-1′(2′H)-yl]-methyl}-1H-benzimidazol-1-yl)butanenitrile] was tested, and the EC50 [1] was 0.0794 nM.

Work on `N#CCCCn1c(CN2C(=O)C3(CCS(=O)(=O)CC3)c3ccncc32)nc2cc(Cl)ccc21` [Compound 108, 4-{5-Chloro-2-[(1′,1′-dioxido-2-oxo-2′,3′,5′,6′,-tetrahydro-spiro[pyrrolo[2,3-c]pyridine-3,4′-thiopyran]-1(2H)-yl)-methyl]-1H-benzimidazol-1-yl}butanenitrile] yielded an EC50 [1] of 0.871 nM.

`N#CCCCn1c(CN2C(=O)C3(CC(O)C3)c3ccccc32)nc2cc(Cl)ccc21` (centres unmarked) [Compound 109, 4-{5-Chloro-2-[(3-hydroxy-2′-oxospiro[cyclobutane-1,3′-indol]-1′(2′H)-yl)methyl]-1H-benzimidazol-1-yl}butanenitrile] was tested, and the EC50 [1] was 0.191 nM.

With `N#CCCCn1c(COC2CC3(C2)C(=O)N(Cc2nc4cc(Cl)ccc4n2CCCC#N)c2ccccc23)nc2cc(Cl)ccc21` [Compound 110, 4-(5-chloro-2-(((1S,3S)-1′-((5-chloro-1-(3-cyanopropyl)-1H-benzo[d]imidazol-2-yl)methyl)-2′-oxospiro[cyclobutane-1,3′-indoline]-3-yloxy)methyl)-1H-benzo[d]imidazol-1-yl)butanenitrile] the EC50 [1] was 1.45 nM.

For `NS(=O)(=O)N1CCC2(CC1)C(=O)N(Cc1cc3cc(Cl)ccc3n1CCCCF)c1cnccc12` [Compound 111, 1′-{[5-Chloro-1-(4-fluorobutyl)-1H-indol-2-yl]methyl}-2′-oxo-1′,2′-dihydro-1H-spiro[piperidine-4,3′-pyrrolo[2,3-c]-pyridine]-1-sulfonamide], the EC50 [1] was 0.123 nM.

In the case of `N#CCCCn1c(CN2C(=O)C3(CCN(S(=O)(=O)C4CC4)CC3)c3ccncc32)nc2cc(Cl)ccc21` [Compound 112, 4-(5-Chloro-2-{[1-(cyclopropylsulfonyl)-2′-oxospiro-[piperidine-4,3′-pyrrolo[2,3-c]pyridin]-1′(2′H)-yl]methyl}-1H-benzimidazol-1-yl)butanenitrile], the EC50 [1] is reported as 0.0251 nM.

Work on `CC(C)(C)OC(=O)N1CCC2(CC1)C(=O)N(Cc1cc3ccccc3n1CCCC(F)(F)F)c1cnccc12` [Compound 113, tert-Butyl 2′-oxo-1′-{[1-(4,4,4-trifluorobutyl)-1H-indol-2-yl]methyl}-1′,2′-dihydro-1H-spiro[piperidine-4,3′-pyrrolo[2,3-c]pyridine]-1-carboxylate] yielded an EC50 [1] of 66.1 nM.

Work on `CCOP(=O)(OCC)N1CCC2(CC1)C(=O)N(Cc1nc3cc(Cl)ccc3n1CCCC#N)c1cnccc12` [Compound 115, Diethyl (1′-{[5-chloro-1-(3-cyanopropyl)-1H-benzimidazol-2-yl]methyl}-2′-oxo-1′,2′-dihydro-1H-spiro[piperidine-4,3′-pyrrolo[2,3-c]pyridin]-1-yl)phosphonate] yielded an EC50 (read-out: RSV-wt_pEC50) of 0.0692 nM.

Compound `CC(O)(C(=O)N1CCC2(CC1)C(=O)N(Cc1nc3cc(Cl)ccc3n1CCCC#N)c1cnccc12)C(F)(F)F` (centres unmarked) [Compound 116, 4-(5-Chloro-2-{[2′-oxo-1-(3,3,3-trifluoro-2-hydroxy-2-methylpropanoyl)spiro[piperidine-4,3′-pyrrolo[2,3-c]pyridin]-1′(2′H)-yl]methyl}-1H-benzimidazol-1-yl)butanenitrile] has an EC50 [1] of 0.0708 nM.

`CNC(=O)O[C@H]1C[C@@]2(C1)C(=O)N(Cc1cc3cc(Cl)ccc3n1CCCCF)c1ccccc12` [Compound 120, (1r,3r)-1′-((5-chloro-1-(4-fluorobutyl)-1H-indol-2-yl)methyl)-2′-oxospiro[cyclobutane-1,3′-indolin]-3-yl methylcarbamate] gave an EC50 [1] of 2.4 nM.

`CC(C)(O)C(=O)N1CC[C@@]2(C1)C(=O)N(Cc1nc3cc(Cl)ccc3n1CCCS(C)(=O)=O)c1ccccc12` [Compound 121, (R)-1-({5-Chloro-1-[3-(methylsulfonyl)propyl]-1H-benzimidazol-2-yl}methyl)-1′-(2-hydroxy-2-methylpropanoyl)spiro[indole-3,3′-pyrrolidin]-2(1H)-one] was tested, and the EC50 [1] was 8.51 nM.
